The target of test [1] is T1, Phosphodiesterase 4 (Homo sapiens, UniProt P27815+Q08499+Q07343+Q08493). The test can be described thus: Inhibition of PDE4 in human SHSY-5Y cells assessed as suppression of cAMP hydrolysis by HTRF assay in presence of dye d2 labelled cAMP. In kind it is cell-based. The note with it: sh-sy5y.
The target of test [2] is 3',5'-cyclic-AMP phosphodiesterase 4B (Homo sapiens, UniProt Q07343). Description: Inhibition of human recombinant PDE4B1 expressed in insect Sf9 cells by fluorescence capillary-electrophoresis assay.
Chain of 3',5'-cyclic-AMP phosphodiesterase 4B (Q07343 whole entry): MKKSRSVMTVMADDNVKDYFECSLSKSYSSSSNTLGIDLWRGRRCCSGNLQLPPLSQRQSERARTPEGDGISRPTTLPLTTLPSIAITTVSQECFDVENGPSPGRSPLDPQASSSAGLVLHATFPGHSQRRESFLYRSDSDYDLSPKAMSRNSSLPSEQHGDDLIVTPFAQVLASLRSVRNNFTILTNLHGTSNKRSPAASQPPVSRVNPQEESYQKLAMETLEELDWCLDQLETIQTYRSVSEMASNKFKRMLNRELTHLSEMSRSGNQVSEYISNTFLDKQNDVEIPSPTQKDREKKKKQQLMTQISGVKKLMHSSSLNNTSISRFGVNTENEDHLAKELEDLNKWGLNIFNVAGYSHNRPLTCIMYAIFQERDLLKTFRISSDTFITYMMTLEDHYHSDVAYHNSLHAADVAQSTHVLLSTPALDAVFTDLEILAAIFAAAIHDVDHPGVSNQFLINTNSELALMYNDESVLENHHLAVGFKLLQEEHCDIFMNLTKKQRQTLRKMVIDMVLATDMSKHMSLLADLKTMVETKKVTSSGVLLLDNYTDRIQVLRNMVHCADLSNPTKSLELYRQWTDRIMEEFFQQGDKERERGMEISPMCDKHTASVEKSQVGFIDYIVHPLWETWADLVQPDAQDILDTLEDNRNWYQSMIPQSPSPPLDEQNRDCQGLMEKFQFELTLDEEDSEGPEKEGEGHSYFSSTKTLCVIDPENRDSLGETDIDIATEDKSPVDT
In test [3] the target is cGMP-inhibited 3',5'-cyclic phosphodiesterase 3A (Homo sapiens, UniProt Q14432). Description: Inhibition of human recombinant PDE3 by fluorescence capillary-electrophoresis assay.
Chain of cGMP-inhibited 3',5'-cyclic phosphodiesterase 3A (Q14432 whole entry): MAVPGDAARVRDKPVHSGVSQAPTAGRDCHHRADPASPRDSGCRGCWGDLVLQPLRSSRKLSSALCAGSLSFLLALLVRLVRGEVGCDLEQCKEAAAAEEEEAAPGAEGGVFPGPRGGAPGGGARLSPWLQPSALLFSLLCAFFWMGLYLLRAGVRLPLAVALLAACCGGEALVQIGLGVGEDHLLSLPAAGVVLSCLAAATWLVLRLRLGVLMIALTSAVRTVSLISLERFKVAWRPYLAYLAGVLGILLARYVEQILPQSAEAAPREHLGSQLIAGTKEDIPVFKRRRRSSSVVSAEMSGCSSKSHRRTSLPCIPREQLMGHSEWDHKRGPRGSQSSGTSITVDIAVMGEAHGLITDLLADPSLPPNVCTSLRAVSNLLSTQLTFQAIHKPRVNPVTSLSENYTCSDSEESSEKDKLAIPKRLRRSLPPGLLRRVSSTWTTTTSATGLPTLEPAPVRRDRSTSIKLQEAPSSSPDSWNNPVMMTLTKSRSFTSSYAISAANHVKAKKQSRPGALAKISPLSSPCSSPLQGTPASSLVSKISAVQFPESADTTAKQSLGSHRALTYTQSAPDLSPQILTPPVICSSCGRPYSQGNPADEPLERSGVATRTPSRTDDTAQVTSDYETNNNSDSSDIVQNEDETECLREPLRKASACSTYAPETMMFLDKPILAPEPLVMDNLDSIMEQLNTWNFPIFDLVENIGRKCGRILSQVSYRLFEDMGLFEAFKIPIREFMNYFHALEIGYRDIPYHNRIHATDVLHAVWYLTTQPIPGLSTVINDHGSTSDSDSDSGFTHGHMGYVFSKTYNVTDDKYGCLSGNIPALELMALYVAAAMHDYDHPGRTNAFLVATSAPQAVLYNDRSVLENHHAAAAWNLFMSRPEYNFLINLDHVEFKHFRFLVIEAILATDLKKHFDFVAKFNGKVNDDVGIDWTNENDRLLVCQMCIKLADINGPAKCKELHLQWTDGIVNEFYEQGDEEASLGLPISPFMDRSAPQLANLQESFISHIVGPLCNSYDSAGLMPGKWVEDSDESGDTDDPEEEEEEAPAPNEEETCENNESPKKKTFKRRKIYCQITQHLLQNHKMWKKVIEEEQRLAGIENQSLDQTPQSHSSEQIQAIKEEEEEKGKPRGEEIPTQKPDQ
Test [4] has as its target T1, Phosphodiesterase 4. Description: Inhibition of PDE4 in human SHSY-5Y cells assessed as suppression of cAMP hydrolysis at 10 uM by HTRF assay in presence of dye d2 labelled cAMP. In kind it is cell-based. The conditions noted are these: SH-SY5Y.

pIC50: −log10 of the molar value.

In the case of `Cc1cnn2c(Nc3ccccc3)c(C(N)=O)cnc12`, in test [1], the IC50 is given as more than 10000 nM. In addition, in test [2], the pIC50 was 5.71.

Turning to `COc1cccc(Nc2c(C(N)=O)cnc3c(C(C)C)c(S(C)(=O)=O)nn23)c1`, the IC50 in test [1] was found to be 270 nM. In test [2], the pIC50 was 8.30.

Take `COc1cccc(Nc2c3c(nc4c(C)c(S(C)(=O)=O)nn24)CCNC3=O)c1`: the IC50 in test [1] stood at 8 nM. Further, the pIC50 in test [2] is 10.00.

For `COc1cccc(Nc2c(C(N)=O)cnc3c(C)c(S(C)(=O)=O)nn23)c1`, in test [1], the IC50 turned out to be 1820 nM. Moreover, the pIC50 in test [2] is 7.59.

Take `Cc1cnn2c(Nc3cc(Cl)cc(Cl)c3)c(C(N)=O)cnc12`: the IC50 in test [1] is more than 10000 nM. Moreover, the pIC50 in test [2] was 7.80.

On to `CNC(=O)c1cnc2c(C)cnn2c1Nc1cccc(OC)c1`, for which the IC50 in test [1] was more than 10000 nM. Further, the pIC50 in test [2] was less than 5.00.

With `COc1cccc(Nc2c(C(N)=O)cnc3c(C)c(S(=O)(=O)c4cccc(C(=O)N(C)C)c4)nn23)c1`, in test [1], the IC50 is recorded as 629 nM. Besides, in test [2], the pIC50 was 9.15.

For the compound `COc1cccc(Nc2c(C(N)=O)cnc3c(C)cnn23)c1`, in test [1], the IC50 is on record as more than 10000 nM. For the same compound, the pIC50 in test [2] was 6.78; in test [3], less than 5.00. For the same compound, in test [4], the inhibition is less than 50%.

With `CSc1nn2c(Nc3cc(Cl)cc(Cl)c3)c3c(nc2c1C)CCNC3=O`, the IC50 in test [1] is reported as 480 nM. In test [2], the pIC50 was 9.70.

For the compound `COc1cccc(Nc2c(C(N)=O)cnc3c(C)c(S(=O)(=O)c4ccccc4)nn23)c1`, in test [1], the IC50 was 243 nM. Moreover, in test [2], the pIC50 is 8.40.

As to `Cc1c(S(=O)(=O)c2ccccc2)nn2c(Nc3cc(Cl)cc(Cl)c3)c(C(N)=O)cnc12`, the IC50 in test [1] was determined as 5600 nM. Besides, the pIC50 in test [2] was 8.15.

With `CCc1cnn2c(Nc3cccc(OC)c3)c(C(N)=O)cnc12`, the IC50 in test [1] is reported as 5400 nM. Further, the pIC50 in test [2] was 7.42.

For `Cc1c(S(C)(=O)=O)nn2c(Nc3cc(Cl)cc(Cl)c3)c(C(N)=O)cnc12`, the IC50 in test [1] amounted to 1500 nM. The pIC50 in test [2] is 8.15.

Turning to `Cc1c(S(C)(=O)=O)nn2c(Nc3cc(Cl)cc(Cl)c3)c3c(nc12)CCNC3=O`, the IC50 in test [1] turned out to be 5 nM. Moreover, in test [2], the pIC50 was 10.52.

For `Cc1c(S(=O)(=O)c2cccc(C(=O)N(C)C)c2)nn2c(Nc3cc(Cl)cc(Cl)c3)c(C(N)=O)cnc12`, the IC50 in test [1] is 130 nM. Also, in test [2], the pIC50 is 9.70.

Regarding `CC(C)c1c(S(C)(=O)=O)nn2c(Nc3cc(Cl)cc(Cl)c3)c(C(N)=O)cnc12`, the IC50 in test [1] is listed as 507 nM. The pIC50 in test [2] is 8.22.

(Values after ChEMBL document CHEMBL3745619, “Preparation and optimization of pyrazolo[1,5-a]pyrimidines as new potent PDE4 inhibitors” (Bioorg Med Chem Lett, 2016).)
